{"source": "paper PMC4206749", "about": "(Toxicological Research, 2014)", "key": {"[1]": {"test_system": "Salmonella typhimurium strain TA1537", "test": "Bacterial reverse mutation assay", "type": "cell-based"}, "[2]": {"test_system": "CHL cells (Chinese hamster lung fibroblast cell line)", "test": "In vitro chromosomal aberration assay", "type": "cell-based"}, "[3]": {"test_system": "Salmonella typhimurium strain TA1535", "test": "Bacterial reverse mutation assay", "type": "cell-based"}, "[4]": {"test_system": "Salmonella typhimurium strain TA98", "test": "Bacterial reverse mutation assay", "type": "cell-based"}, "[5]": {"test_system": "Escherichia coli strain (WP2 uvrA)", "test": "Bacterial reverse mutation assay", "type": "cell-based", "conditions": "E. coli"}, "[6]": {"test_system": "Salmonella typhimurium strain TA100", "test": "Bacterial reverse mutation assay", "type": "cell-based"}, "[7]": {"test_system": "S. typhimurium strain TA100 and TA98, E. coli strain WP2uvrA", "conditions": "presence and absence of the S9 mix, 0.02~5000 μg per plate; cited from earlier work"}, "[8]": {"test_system": "L5178Y Tk^+/− mouse lymphoma cells", "test": "In vitro comet assay", "type": "cell-based", "conditions": "for % DNA in tail / Olive moment / Tail length / Tail moment: 4 hr; for Comet parameters compared to vehicle: p < 0.05"}, "[9]": {"conditions": "positive control 35 μg/ml with S9 mix"}, "[10]": {"conditions": "positive control 10 μg/ml, with metabolic activation, short term treatment"}, "[11]": {"conditions": "positive control 15 μg/ml without S9 mix"}}, "note": "Marks after values point to notes of the source that are not given here."}
{"smiles": "Nc1c2ccccc2nc2ccccc12", "note": "[9-AA, 9-aminoacridine, reference compound]", "values": [{"measurement": "Number of reverse mutants/plate (Mean ± SD)", "setting": "[1]; TA1537, without S9 activation, positive control 80 μg/plate", "result": "151 ± 11", "unit": "reverse mutants/plate"}]}
{"smiles": "CO[C@@]12[C@H](COC(N)=O)C3=C(C(=O)C(C)=C(N)C3=O)N1C[C@@H]1N[C@@H]12", "note": "[MMC, mitomycin C, reference compound]", "values": [{"measurement": "Gap", "setting": "[2]; positive control 0.5 μg/ml, continuous treatment, 200 cells", "result": 8}]}
{"smiles": "Nc1ccc2cc3ccccc3cc2c1", "note": "[2-AA, 2-aminoanthracene, reference compound]", "values": [{"measurement": "Number of reverse mutants/plate (Mean ± SD)", "setting": "[1]; TA1537, with S9 activation, positive control 2.0 μg/plate", "result": "118 ± 16", "unit": "reverse mutants/plate"}, {"measurement": "Number of reverse mutants/plate (Mean ± SD)", "setting": "[3]; TA1535, with S9 activation, positive control 2.0 μg/plate", "result": "156 ± 6", "unit": "reverse mutants/plate"}, {"measurement": "Number of reverse mutants/plate (Mean ± SD)", "setting": "[4]; TA98, with S9 activation, positive control 0.5 μg/plate", "result": "232 ± 9", "unit": "reverse mutants/plate"}, {"measurement": "Number of reverse mutants/plate (Mean ± SD)", "setting": "[5]; with S9 activation, positive control 10 μg/plate", "result": "428 ± 21", "unit": "reverse mutants/plate"}, {"measurement": "Number of reverse mutants/plate (Mean ± SD)", "setting": "[6]; TA100, with S9 activation, positive control 1.0 μg/plate", "result": "598 ± 20", "unit": "reverse mutants/plate"}]}
{"smiles": "Oc1ccc(/C=C/c2cc(O)cc(O)c2)cc1", "note": "[Resveratrol]", "values": [{"measurement": "Bacterial reverse mutation assay result", "setting": "[7]", "result": "negative"}]}
{"smiles": "[N-]=[N+]=[N-].[Na+]", "note": "[NaN3, sodium azide, reference compound]", "values": [{"measurement": "Number of reverse mutants/plate (Mean ± SD)", "setting": "[3]; TA1535, without S9 activation, positive control 0.5 μg/plate", "result": "151 ± 17", "unit": "reverse mutants/plate"}]}
{"smiles": "c1ccc2c(c1)cc1ccc3cccc4ccc2c1c34", "note": "[BaP, benzo(A)pryene, reference compound]", "values": [{"measurement": "% DNA in tail", "setting": "[8]; [9]", "result": "49.14 ± 3.29", "unit": "%"}, {"measurement": "Olive moment", "setting": "[8]; [9]", "result": "13.74 ± 1.97", "unit": "μm"}, {"measurement": "Tail length", "setting": "[8]; [9]", "result": "80.29 ± 6.24", "unit": "μm"}, {"measurement": "Tail moment", "setting": "[8]; [9]", "result": "42.15 ± 3.98", "unit": "μm"}, {"measurement": "Comet parameters compared to vehicle", "setting": "[8]; positive control with S9 mix", "result": "increased significantly"}]}
{"smiles": "O=P1(N(CCCl)CCCl)NCCCO1", "note": "(stereo not shown) [CPA, cyclophosphamide, reference compound]", "values": [{"measurement": "Total frequency (+) Gap", "setting": "[2]; [10]", "result": "132** %"}, {"measurement": "Total frequency (−) Gap", "setting": "[2]; [10]", "result": "116** %"}, {"measurement": "Frequency of cells with chromosomal aberration", "setting": "[2]; positive control, treatment with metabolic activation", "result": "> 10", "unit": "%"}]}
{"smiles": "COS(C)(=O)=O", "note": "[MMS, methyl methansulfonate, reference compound]", "values": [{"measurement": "% DNA in tail", "setting": "[8]; [11]", "result": "51.29 ± 4.26", "unit": "%"}, {"measurement": "Olive moment", "setting": "[8]; [11]", "result": "14.68 ± 1.01", "unit": "μm"}, {"measurement": "Tail length", "setting": "[8]; [11]", "result": "97.21 ± 6.75", "unit": "μm"}, {"measurement": "Tail moment", "setting": "[8]; [11]", "result": "58.13 ± 6.12", "unit": "μm"}, {"measurement": "Comet parameters compared to vehicle", "setting": "[8]; positive control without S9 mix", "result": "increased significantly"}]}
{"smiles": "NC(=O)C(=Cc1ccc([N+](=O)[O-])o1)c1ccco1", "note": "[AF-2, 2-(2-furyl)-3-(5-nitro-2-furyl) acrylamide, reference compound]", "values": [{"measurement": "Number of reverse mutants/plate (Mean ± SD)", "setting": "[4]; TA98, without S9 activation, positive control 0.1 μg/plate", "result": "278 ± 20", "unit": "reverse mutants/plate"}, {"measurement": "Number of reverse mutants/plate (Mean ± SD)", "setting": "[5]; without S9 activation, positive control 0.01 μg/plate", "result": "334 ± 23", "unit": "reverse mutants/plate"}, {"measurement": "Number of reverse mutants/plate (Mean ± SD)", "setting": "[6]; TA100, without S9 activation, positive control 0.01 μg/plate", "result": "425 ± 23", "unit": "reverse mutants/plate"}]}
